Measured values from US20240018118A1, “TRICYCLIC COMPOUNDS TO DEGRADE NEOSUBSTRATES FOR MEDICAL THERAPY” (C 4 Therapeutics, Inc., priority 2020, published 2024).
pIC50: −log10 of the molar value. Like-named read-outs stand apart in the source and are kept apart here.

Columns and labels:
GSPT1 = GSPT1 (Homo sapiens, UniProt P15170+Q96SW2); assay: HiBiT degradation assay, 293T.114 cells, GSPT1; format: cell-based
Method: GSPT1 degradation was determined based on quantification of luminescent signal using Nano-Glo® HiBiT Lytic Assay kit. Test compounds were added to the 384-well plate from a top concentration of 10 μM with 5 points, 3-fold titration in quadruplicates. 293T.114 cells were added into 384-well plates at a cell density of 6000 cells per well. […] The cells treated in the absence of the test compound were the negative control and the cells without Nano-Glo® HiBiT Lytic reagent were the positive control. […] Luminescence was acquired on EnVision™ Multilabel Reader (PerkinElmer, Santa Clara, CA, USA).

IKZF1 = biological target: T1, IKZF1 (Homo sapiens, UniProt Q13422+Q96SW2); assay: HiBiT degradation assay, NCIH929.11 (HiBiT-IKZF1) cells; format: cell-based; details: for DC50: NCHI929.11 cells, 6 hours; for Emax: read-out: HiBiT-Degradation NCHI929.11 IKZF1 6 hours Emax, NCHI929.11 cells
T1 construct: endogenously expressing IKZF1 with HiBiT fusion tag via CRISPR; endogenous in cells; host or cells: NCIH929.11 (CRISPR knock-in)
Method: RPMI no-phenol red medium and fetal bovine serum (FBS) were purchased from Gibco (Grand Island, NY, USA). Nano-Glo® HiBiT Lytic Assay System was purchased from Promega (Madison, WI, USA). NCIH929.11 (HiBiT-IKZF1) cell line was generated in house, endogenously expressing IKZF1 with HiBiT fusion tag via CRISPR. Cell culture flasks and 384-well microplates were acquired from VWR (Radnor, PA, USA).
IKZF 1 degradation was determined based on quantification of luminescent signal using Nano-Glo® HiBiT Lytic Assay kit. Test compounds were added to the 384-well plate from a top concentration of 10 μM with 11 points, half-log titration in duplicates. NCIH929.11 cells expressing HiBiT-tagged TKZF1 were added into 384-well plates in RPMI medium containing 10% FBS and 0.05 mM 2-mercaptoethanol at a cell density of 15000 cells per well. The plates were kept at 37° C. with […] for 6 hours. Cells treated in the absence of the test compound were the negative control and wells containing media only were the positive control. After 6-hour incubation, Nano-Glo® HiBiT Lytic Assay reagents were added to the designated wells. Luminescence was acquired on EnVision™ Multilabel Reader (PerkinElmer, Santa Clara, CA, USA).

SALL4 = SALL4 (Homo sapiens, UniProt Q96SW2+Q9UJQ4); assay: HiBiT degradation assay, KELLY.2 (SALL4-HiBiT) cells; format: cell-based; details: for DC50: KELLY.2 cells, 6 hours; for Emax: read-out: HiBiT-Degradation KELLY.2 SALL4 6 hours Emax, KELLY.2 cells
Method: RPMI 1640 Medium without phenol red, fetal bovine serum (FBS), and Sodium Pyruvate (100 mM) were purchased from Gibco (Grand Island, NY, USA). Nano-Glo® HiBiT Lytic Assay System was purchased from Promega (Madison, WI, USA). […] Cell culture flasks and 384-well microplates were acquired from VWR (Radnor, PA, USA).
SALL4 degradation was determined based on quantification of luminescent signal using Nano-Glo® HiBiT Lytic Assay kit. Test compounds were added to the 384-well plate from a top concentration of 10 μM with 11 points, half log titration in duplicates. KELLY.2 cells were added into 384-well plates at a cell density of 6000 cells per well. The plates were kept at 37° C. with 5% CO2 for 6 hours. The cells treated in the absence of the test compound were the negative control and the cells without Nano-Glo® HiBiT Lytic reagent were the positive control. After 6-hour incubation, Nano-Glo® HiBiT Lytic Assay reagents were added to the cells. Luminescence was acquired on EnVision™ Multilabel Reader (PerkinElmer, Santa Clara, CA, USA).

CRBN = biological target: T2, CRBN (Homo sapiens, UniProt Q96SW2); assay: NanoBRET CRBN binding, 293T.116 cells; details: 2 hours
T2 construct: expressed in transfected cells; host or cells: 293T (line named 293T.116)

[1] = biological target: T3, CRBN-NanoLuc® fusion protein in 293T cells (Homo sapiens, UniProt Q96SW2); assay: NanoBRET assay: competitive displacement of pomalidomide-NanoBRET tracer from CRBN-NanoLuc in 293T.116 cells; format: binding; details: 2 h at 37° C., tracer at 300 nM
T3 construct: expressed in transfected cells; host or cells: 293T (line named 293T.116)
Method: The cell permeability and binding affinity of test compounds to cellular cereblon (CRBN) was determined by competitive displacement of a pomalidomide-NanoBRET™ tracer reversibly bound to a CRBN-NanoLuc® fusion protein in 293T cells. 293T cells were modified by lentiviral transfection to express a fusion of CRBN and NanoLuc® luciferase. […] Affinity of test compound was determined by displacement of NanoBRET-pomalidomide tracer signal following the addition of NanoBRET reagents (Promega) per manufacturer's instructions.
40 μL 293T.116 cells suspended in OptiMEM media at 2×10^5 cells/mL (8000 cells/well) were dispensed using a Multidrop Combi Reagent Dispenser (Thermo Fisher) to each well of 384-well white TC-treated microplates. 10 mM DMSO test compound stock solution was serially diluted (half log) in DMSO to generate 11-point dose series (10000, 3160, 1000, 316, 100, 31.6, 10, 3.2, 1, 0.3, 0.1 μM) in an acoustic ready 384-well low dead volume microplate (Labcyte). […] 20 μL NanoBRET TE Assay reagents were added to each well and NanoBRET signal was acquired on an EnVision Multilabel Reader (PerkinElmer). Donor emission from CRBN-NanoLuc was detected at 450 nm with a NanoLuc 460/50 filter and Acceptor fluorescence of NanoBRET-pomalidomide tracer (618 nm) was detected with a 600 nm long pass NanoBRET filter. Ratio of Acceptor signal/Donor signal was calculated for each well. […]

IKZF2 = IKZF2 (Homo sapiens, UniProt Q96SW2+Q9UKS7); details: cited from earlier work
IKZF4 = IKZF4 (Homo sapiens, UniProt Q96SW2+Q9H2S9); details: cited from earlier work
[2] = 293T.114 cells, 6 hours, read-out: HiBiT-Degradation 293T.114 GSPT1 6 hours DC50
[3] = read-out: GSPT1 Emax @ 10 μM 24 Hours, 24 hours
[4] = read-out: HiBiT-Degradation 293T.114 GSPT1 6 hours Emax, 293T.114 cells, 6 hours
[5] = 293T.114 cells, 24 hours, read-out: HiBiT-Degradation 293T.114 GSPT1 24 hours DC50
[6] = 293T.114 cells, 24 hours, read-out: HiBiT-Degradation 293T.114 GSPT1 24 hours Emax
[7] = 293T.114 cells, 48 hours, read-out: HiBiT-Degradation 293T.114 GSPT1 48 hours DC50
[8] = 293T.114 cells, 48 hours, read-out: HiBiT-Degradation 293T.114 GSPT1 48 hours Emax

O=C1CCC(N2C(=O)c3ccc(CNC(=O)C(F)(F)c4ccc(Cl)cc4)c4cccc2c34)C(=O)N1 (stereo not drawn) [Compound 64, 2-(4-chlorophenyl)-N-[[1-(2,6-dioxo-3-piperidyl)-2-oxo-benzo[cd]indol-5-yl]methyl]-2,2-difluoro-acetamide]
DC50 (GSPT1; [2]): > 10 µM | Emax (GSPT1; [3]): < 45% | Emax (GSPT1; [4]): 45 to 60% | DC50 (IKZF1): > 10 µM | Emax (IKZF1): 45 to 60% | DC50 (SALL4): < 100 nM | Emax (SALL4): < 45% | pIC50 (CRBN): > 7.00

CCOC(=O)c1ccc(Cc2ccc3c4c(cccc24)N(C2CCC(=O)NC2=O)C3=O)cc1 (stereo not drawn) [Compound 61, ethyl 4-((1-(2,6-dioxopiperidin-3-yl)-2-oxo-1,2-dihydrobenzo[cd]indol-5-yl)methyl)benzoate]
DC50 (GSPT1; [2]): > 10 µM | Emax (GSPT1; [3]): < 45% | Emax (GSPT1; [4]): 45 to 60% | DC50 (IKZF1): 0.1 to 1 µM | Emax (IKZF1): < 45% | DC50 (SALL4): 100 to 1000 nM | Emax (SALL4): < 45% | pIC50 (CRBN): > 7.00

CCOC(=O)c1cc(Cc2ccc3c4c(cccc24)N(C2CCC(=O)NC2=O)C3=O)ccc1F (stereo not drawn) [Compound 69, ethyl 5-[[1-(2,6-dioxo-3-piperidyl)-2-oxo-benzo[cd]indol-5-yl]methyl]-2-fluoro-benzoate]
DC50 (GSPT1; [2]): > 10 µM | Emax (GSPT1; [4]): 60 to 95% | DC50 (IKZF1): > 10 µM | Emax (IKZF1): 60 to 95% | DC50 (SALL4): > 10000 nM | Emax (SALL4): 60 to 95% | pIC50 (CRBN): > 7.00

N#Cc1ccc2c3c(cccc13)N(C1CCC(=O)NC1=O)C2=O (stereo not drawn) [Compound 225]
pIC50 [1]: 7.22

CC1(C(=O)N2CCC(n3cc(Cc4ccc5c6c(cccc46)C(=O)N5[C@H]4CCC(=O)NC4=O)cn3)CC2)CCC1 [Compound 206, (3S)-3-[6-[[1-[1-(1-methylcyclobutanecarbonyl)-4-piperidyl]pyrazol-4-yl]methyl]-2-oxo-benzo[cd]indol-1-yl]piperidine-2,6-dione]
DC50 (GSPT1; [2]): > 10 µM | Emax (GSPT1; [4]): > 95% | DC50 (IKZF1): < 0.1 µM | Emax (IKZF1): < 45% | DC50 (SALL4): < 100 nM | Emax (SALL4): < 45% | pIC50 (CRBN): > 7.00

O=C1CCC(N2C(=O)c3ccc(Br)c4cccc2c34)C(=O)N1 (stereo not drawn) [Compound 224]
pIC50 [1]: 7.40 | DC50 (GSPT1; [2]): > 10 µM | Emax (GSPT1; [4]): 60 to 95% | DC50 (IKZF1): > 10 µM | Emax (IKZF1): 60 to 95% | DC50 (SALL4): < 100 nM | Emax (SALL4): < 45% | pIC50 (CRBN): > 7.00

N#Cc1ccc(Cc2ccc3c4c(cccc24)N(C2CCC(=O)NC2=O)C3=O)cc1 (stereo not drawn) [Compound 66, 4-[[1-(2,6-dioxo-3-piperidyl)-2-oxo-benzo[cd]indol-5-yl]methyl]benzonitrile]
DC50 (GSPT1; [5]): > 10 µM | Emax (GSPT1; [6]): 60 to 95% | DC50 (GSPT1; [7]): > 10 µM | Emax (GSPT1; [8]): 60 to 95% | DC50 (IKZF1): > 10 µM | Emax (IKZF1): 60 to 95% | DC50 (SALL4): 100 to 1000 nM | Emax (SALL4): 45 to 60% | pIC50 (CRBN): > 7.00

CCOC(=O)c1cccc(Cc2ccc3c4c(cccc24)N(C2CCC(=O)NC2=O)C3=O)c1 (stereo not drawn) [Compound 62, ethyl 3-((1-(2,6-dioxopiperidin-3-yl)-2-oxo-1,2-dihydrobenzo[cd]indol-5-yl)methyl)benzoate]
DC50 (GSPT1; [2]): > 10 µM | Emax (GSPT1; [3]): < 45% | Emax (GSPT1; [4]): 60 to 95% | DC50 (IKZF1): > 10 µM | Emax (IKZF1): 60 to 95% | DC50 (SALL4): > 10000 nM | Emax (SALL4): 60 to 95% | pIC50 (CRBN): > 7.00

O=C1CC[C@H](N2Cc3c(OCc4ccc(CN5CCOCC5)cc4)cccc3C2=O)C(=O)N1 [CC-220]
degradation of IKZF2 (IKZF2): efficiently degraded | degradation of IKZF4 (IKZF4): efficiently degraded

Nc1cccc2c1C(=O)N(C1CCC(=O)NC1=O)C2=O (stereo not drawn) [pomalidomide]
degradation of IKZF2 (IKZF2): not degraded | degradation of IKZF4 (IKZF4): not degraded

N#Cc1ccc(N2CCN(Cc3ccc(Cc4ccc5c6c(cccc46)C(=O)N5[C@H]4CCC(=O)NC4=O)cc3)CC2)c(F)c1 [Compound 78, (S)-4-(4-(4-((1-(2,6-dioxopiperidin-3-yl)-2-oxo-1,2-dihydrobenzo[cd]indol-6-yl)methyl)benzyl)piperazin-1-yl)-3-fluorobenzonitrile]
DC50 (GSPT1; [2]): > 10 µM | Emax (GSPT1; [4]): 60 to 95% | DC50 (IKZF1): < 0.1 µM | Emax (IKZF1): < 45% | DC50 (SALL4): < 100 nM | Emax (SALL4): < 45% | pIC50 (CRBN): > 7.00

Cc1nc2cccc(N)c2c(=O)n1C1CCC(=O)NC1=O (stereo not drawn) [CC-122]
degradation of IKZF2 (IKZF2): not degraded | degradation of IKZF4 (IKZF4): not degraded

CC(C)OC1CCN(Cc2cc3c4c(cccc4c2)N(C2CCC(=O)NC2=O)C3=O)CC1 (stereo not drawn) [Compound 161]
DC50 (GSPT1; [5]): > 10 µM | Emax (GSPT1; [6]): 60 to 95% | DC50 (GSPT1; [7]): > 10 µM | Emax (GSPT1; [8]): 60 to 95% | DC50 (IKZF1): 1 to 10 µM | Emax (IKZF1): < 45% | DC50 (SALL4): > 10000 nM | Emax (SALL4): 60 to 95% | pIC50 (CRBN): > 7.00

O=C1CCC(N2C(=O)c3ccc(CNCc4cc(F)ccc4F)c4cccc2c34)C(=O)N1 (stereo not drawn) [Compound 155, 3-[5-[[(2,5-difluorophenyl)methylamino]methyl]-2-oxo-benzo[cd]indol-1-yl]piperidine-2,6-dione]
DC50 (GSPT1; [5]): > 10 µM | Emax (GSPT1; [6]): 60 to 95% | DC50 (GSPT1; [7]): > 10 µM | Emax (GSPT1; [8]): 60 to 95% | DC50 (IKZF1): > 10 µM | Emax (IKZF1): 45 to 60% | DC50 (SALL4): < 100 nM | Emax (SALL4): < 45% | pIC50 (CRBN): > 7.00
